# Experimental data from ChEMBL document CHEMBL1146185, “P2-P4 macrocyclic inhibitors of hepatitis C virus NS3-4A serine protease” (Bioorg Med Chem Lett, 2006).
# pKi: −log10 of the molar value.
# Biological target: NS3 (Hepatitis C virus, UniProt A3EZJ3)
# Assay: Binding affinity to HCV NS3 protease
# Design: species or system Hepacivirus hominis
# NS3, sequence (A3EZJ3 whole entry): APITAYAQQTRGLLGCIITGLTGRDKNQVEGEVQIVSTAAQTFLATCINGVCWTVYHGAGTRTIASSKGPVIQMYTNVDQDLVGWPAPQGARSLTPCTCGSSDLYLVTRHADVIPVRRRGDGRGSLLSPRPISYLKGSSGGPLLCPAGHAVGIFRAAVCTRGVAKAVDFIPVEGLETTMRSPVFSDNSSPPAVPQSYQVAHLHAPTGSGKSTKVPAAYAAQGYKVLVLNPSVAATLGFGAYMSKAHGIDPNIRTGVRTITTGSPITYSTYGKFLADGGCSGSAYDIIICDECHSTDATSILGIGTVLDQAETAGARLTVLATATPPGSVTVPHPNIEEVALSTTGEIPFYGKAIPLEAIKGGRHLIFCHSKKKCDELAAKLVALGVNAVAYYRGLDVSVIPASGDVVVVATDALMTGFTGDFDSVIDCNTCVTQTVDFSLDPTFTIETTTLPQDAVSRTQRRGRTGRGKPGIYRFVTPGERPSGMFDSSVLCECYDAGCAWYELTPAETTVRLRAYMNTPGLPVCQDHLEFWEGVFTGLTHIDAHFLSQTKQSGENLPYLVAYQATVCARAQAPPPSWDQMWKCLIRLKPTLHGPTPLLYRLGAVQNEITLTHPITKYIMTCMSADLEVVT
row,SMILES,pKi
1,CCCC(NC(=O)[C@@H]1C[C@@H]2CN1C(=O)[C@H](C(C)(C)C)NC(=O)Oc1cccc(c1)OCCCO2)C(=O)C(=O)NCC(=O)N[C@H](C(=O)N(C)C)c1ccccc1 (some centres not stated),6.70
2,CCCC(NC(=O)[C@@H]1C[C@@H]2CN1C(=O)[C@H]([C@H]1CC[C@@H](C(=O)O)CC1)NC(=O)Cc1cccc(c1)OCCCO2)C(=O)C(=O)NCC(=O)N[C@H](C(=O)N(C)C)c1ccccc1 (some centres not stated),7.52
3,CCCC(NC(=O)[C@@H]1C[C@@H]2CN1C(=O)[C@H](C1CCCCC1)NC(=O)N(C)Cc1cccc(c1)OCCCO2)C(=O)C(=O)NCC(=O)N[C@H](C(=O)N(C)C)c1ccccc1 (some centres not stated),7.59
4,CCCC(NC(=O)[C@@H]1C[C@@H]2CN1C(=O)[C@H](C1CCCCC1)NC(=O)Nc1cccc(c1)OCCCO2)C(=O)C(=O)NCC(=O)N[C@H](C(=O)N(C)C)c1ccccc1 (some centres not stated),5.80
5,CCCC(NC(=O)[C@@H]1C[C@@H]2CN1C(=O)[C@H](C1CCCCC1)NC(=O)Cc1cc(OC)cc(c1)OCCCO2)C(=O)C(=O)NCC(=O)N[C@H](C(=O)N(C)C)c1ccccc1 (some centres not stated),7.49
6,CCCC(NC(=O)[C@@H]1C[C@@H]2CN1C(=O)[C@H](C1CCCCC1)NC(=O)Cc1cc(C)cc(c1)OCCCO2)C(=O)C(=O)NCC(=O)N[C@H](C(=O)N(C)C)c1ccccc1 (some centres not stated),7.52
7,CCCC(NC(=O)[C@@H]1C[C@@H]2CN1C(=O)[C@H](C(C)(C)C)NC(=O)c1cccc(c1)OCCCCO2)C(=O)C(=O)NCC(=O)N[C@H](C(=O)N(C)C)c1ccccc1 (some centres not stated),6.68
8,CCCC(NC(=O)[C@@H]1C[C@@H]2CN1C(=O)[C@H](C1CCCCC1)NC(=O)N(C)c1cccc(c1)OCCCO2)C(=O)C(=O)NCC(=O)N[C@H](C(=O)N(C)C)c1ccccc1 (some centres not stated),7.05

# Compounds with a higher pKi, results first:
row,pKi,SMILES
1,7.72,CCCC(NC(=O)[C@@H]1C[C@@H]2CN1C(=O)[C@H]([C@H]1CC[C@H](C(=O)O)CC1)NC(=O)Cc1cccc(c1)OCCCO2)C(=O)C(=O)NCC(=O)N[C@H](C(=O)N(C)C)c1ccccc1 (some centres not stated)
2,7.92,CCCC(NC(=O)[C@@H]1C[C@@H]2CN1C(=O)[C@H](C1CCCCC1)NC(=O)Cc1ccc(C)c(c1)OCCCO2)C(=O)C(=O)NCC(=O)N[C@H](C(=O)N(C)C)c1ccccc1 (some centres not stated)
3,8.10,CCCC(NC(=O)[C@@H]1C[C@@H]2CN1C(=O)[C@H](C1CCCCC1)NC(=O)Cc1cccc(c1)OCCCO2)C(=O)C(=O)NCC(=O)N[C@H](C(=O)N(C)C)c1ccccc1 (some centres not stated)
4,8.22,CCCC(NC(=O)[C@@H]1C[C@@H]2CN1C(=O)[C@H](C1CCCC(C(=O)O)C1)NC(=O)Cc1cccc(c1)OCCCO2)C(=O)C(=O)NCC(=O)N[C@H](C(=O)N(C)C)c1ccccc1 (some centres not stated)
